The numbers were not newly measured in publication PMC3983201, “6-Methoxyflavanones as Bitter Taste Receptor Blockers for hTAS2R39” (PLoS ONE, 2014), which cites them from elsewhere.

Like-named read-outs stand apart in the source and are kept apart here.

In data set [1] the test system is bitter taste. Set-up: method as in PMID 16028996. The settings on record: in-vivo sensory masking, unknown mechanism; cited from earlier work.
The target in data set [2] is T1, hTAS2R39 (Homo sapiens, UniProt P59534).
T1 construct: first 45 amino acids of rat somatostatin receptor type 3 (sst3 membrane-targeting tag) (N); expressed in transfected cells; host or cells: HEK293 T-Rex Flp-In cells stably expressing Gα16-gust44; receptor in pcDNA5/FRT, induced with doxycycline
T1 sequence (P59534 1-338): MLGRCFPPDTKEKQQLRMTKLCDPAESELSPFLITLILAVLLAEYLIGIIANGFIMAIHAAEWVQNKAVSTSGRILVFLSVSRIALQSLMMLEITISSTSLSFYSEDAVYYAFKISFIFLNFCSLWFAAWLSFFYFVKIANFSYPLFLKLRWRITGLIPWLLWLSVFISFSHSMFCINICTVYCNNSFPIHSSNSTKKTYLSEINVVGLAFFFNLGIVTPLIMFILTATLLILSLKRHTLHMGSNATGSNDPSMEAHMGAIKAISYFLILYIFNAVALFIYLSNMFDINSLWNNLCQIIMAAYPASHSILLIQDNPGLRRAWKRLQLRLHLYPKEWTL
Set-up: method as in PMID 24117141. The settings on record: cited from earlier work.

Data set [3] has as its system hTAS2R31. Also noted: method as in PMID 22059530. The settings on record: cited from earlier work.

Take `COc1cc([C@@H]2CC(=O)c3c(O)cc(O)cc3O2)ccc1O` [Compound 7, Homoeriodictyol]: in data set [1], the “reduction of the bitter taste of different chemical classes of bitter molecules” value was “up to 40%”. The “activation of hTAS2R39 in a previous study” value in data set [2] was “a activated hTAS2R39 in a previous study [16], but was selected for testing as antagonist due to ability to reduce bitter taste perception in sensory tests [9]”.

Consider `O=C1C[C@@H](c2ccc(O)c(O)c2)Oc2cc(O)cc(O)c21` [Compound 4, Eriodictyol], for which the “reduction of the bitter taste of different chemical classes of bitter molecules” value in data set [1] is recorded as “up to 40%”. The “activation of hTAS2R39 in a previous study” value in data set [2] is “a activated hTAS2R39 in a previous study [16], but was selected for testing as antagonist due to ability to reduce bitter taste perception in sensory tests [9]”. Take `COc1cc(O)c2c(c1)O[C@H](c1ccc(O)cc1)CC2=O` [Compound 14, Sakuranetin]: the figures for the “antagonism of hTAS2R31” value in data set [3] and in data set [3] (listed as sakuranetin) were “c reported as antagonist of hTAS2R31 [10]” and “antagonists for hTAS2R31”, respectively.

In the case of `COc1cc2c(c(O)c1OC)C(=O)C[C@@H](c1ccc(O)cc1)O2` [6-methoxysakuranetin, reference compound], the “antagonism of hTAS2R31” value in data set [3] was “antagonists for hTAS2R31”.
